Laboratory results: patent publication US6855695B2, “Water-soluble SHPs as novel alkylating agents” (Vion Pharmaceuticals, Inc., priority 2003, dated 2005)
Values after ≈ are worked out from the molar mass of the structure shown.

Columns and labels:
[1] = Water-solubility at room temperature; type: physicochemical; details: thermodynamic from solid; for solubility: determined visually by incremental addition, not at equilibrium
Description: The solubility of the newly synthesized SHPs (19, 20a, 21, and 22a) is much higher than that of VNP40101 M, as shown in Table 1.
For the free phosphoric acid 19 and 20a, an excess amount of the drug was placed in a glass vial containing 2.0 mL of water. The vials were shaken in a Glas Col rotary apparatus at room temperature for 24 hours. The suspension containing undissolved drug was centrifuged; the supernatant was carefully separated and analyzed by HPLC for drug concentration. […] Aqueous solutions of 19 and 20a were colorless. Similarly, the solubility of the sodium salts 21 and 22a was determined visually by adding incremental quantities of the drug to 2.0 mL of water in a glass vial. The vials were shaken at room temperature in a Glas Col rotary apparatus until the drug dissolved entirely. Additional fixed quantities of drug were added and the vials shaken until complete dissolution. This process was continued until no more drug dissolved. Compounds 21 and 22a are highly water-soluble. Because of limited drug supplies determination of the solubilities at equilibrium could not be obtained. Solubilities of >0.98 and >1.35 g/mL for 21 and 22a, respectively, were determined.

[2] = system: HTB177 human lung carcinoma; experiment: In vivo anti-tumor activity, HTB177 human lung carcinoma in nu/nu CD-1 mice
Description: (§1) The anti-tumor effects of VNP40101 M and prodrugs, including PAP-101M (19), OAP-101M (20a), PAP-Na-101M (21), and OAP-Na-101M (22a), were evaluated in both the B16-F10 murine melanoma and HTB177 human lung carcinoma models. B16-F10 melanoma cells were implanted subcutaneously (5×10^5 cells) into C57BL/6 mice, which were randomized into groups of ten immediately after tumor cell implantation (Day 0). On Day 2, mice were injected intraperitoneally with either a bolus injection of 0.1 mL PBS or drug. The treatment was carried out weekly for four consecutive weeks. Tumor measurement in three dimensions was determined once a week with the formula L×H×W/2, where L, H, and W represent length, height, and width, respectively. […] On Day 24, tumor growth was inhibited by 81% in mice treated with 80 mg/kg of VNP40101M, and by 75 to 91% in mice treated with equal molar doses of the prodrugs. […] The toxicity of these drugs in mice was mild as determined by body weight loss and animal appearance, as illustrated in FIG. 13.

alkaline phosphatase = experiment: In vitro enzymatic bioconversion by alkaline phosphatase; type: in vitro ADME; details: bovine, alkaline phosphatase from bovine intestinal mucosa; approx. 0.055 unit/mL AP in 50 mM Tris buffered saline pH 7.6, 37° C., drug approx. 50 μg/mL
Description: Each drug, at a final concentration of approximately 50 μg/mL, was incubated at 37° C. in 50 mM Tris buffered saline (pH 7.6) containing approximately 0.055 unit/mL of the phosphatase enzyme.
(§2) A control sample of each drug at a final concentration of 50 μg/mL in 50 mM Tris buffered saline (pH 7.6) without AP was also incubated at 37° C. Aliquots of each solution were taken periodically; disappearance of the tested drug was determined by HPLC.

[3] = Pharmacokinetic study in rats, single iv bolus, HPLC-UV; type: in vivo, female Sprague-Dawley rats; details: iv bolus 50 mg/kg
Description: Preliminary investigations of the pharmacokinetic profiles of prodrugs 19 and 20a were conducted in female Sprague-Dawley rats (10 weeks old, 250 g, Charles River). Each prodrug was administered as a single bolus intravenous (iv) injection via the jugular vein at a dose of 50 mg per kg (mpk) of body weight. Blood samples were collected on the day of dosing at the following time points: pre-dose and approximately 2, 10, 30 min, 1, 2, and 24 hr, after dosing. At each time point, approximately 0.2 mL of blood was collected in a tube containing an anticoagulant (heparin), which was immediately acidified by adding 0.005 mL of a 2.0 M citric acid solution. Then, the tube was inverted 4 to 6 times and immediately placed on ice. The blood samples were centrifuged within 30 min after blood collection at 3,000 rpm for 10-20 min at 2-8° C., and the plasma fraction was transferred to a labeled Nunc cryovial. The plasma samples were immediately frozen on dry ice and stored at −20° C. until HPLC-UV analysis. Animals were euthanized with CO2 inhalation after experiments.
Bioanalytical methods were developed to quantify these prodrugs in rat plasma using HPLC-UV at either 220 nm or 230 nm. Each plasma sample (0.1 mL) was extracted with 0.2 mL of acetonitrile. The extract was separated by centrifugation and analyzed directly by HPLC-UV. HPLC calibration standards were prepared in control rat plasma and processed as above.
Comparison to VNP101M (10 mpk of radioactive VNP101M was used in previous experiments) is difficult because of the difference in doses used in two the studies.

[4] = Stability in 100% human plasma; type: in vitro ADME; details: both sexes, 37° C.
Description: (§3) The stability of compounds 19, 20a and VNP40101M was evaluated in 100% human plasma (pooled mixed gender, BioChemed) at a final concentration of 50 μg/mL. Each drug (19 or 20a) was incubated in human plasma at 37° C. for a maximum of two hours. Aliquots of the incubation mixture were taken at various time points and extracted with acetonitrile. The extract was separated by centrifugation and analyzed directly by HPLC. In a similar manner, VNP40101M was incubated in human plasma at 37° C. for a maximum of one hour. At various time points, aliquots of the incubation mixture were removed and extracted with 0.5% H3PO4 in acetonitrile. The extract was separated by centrifugation and analyzed directly by HPLC. For comparison, the stability of each drug incubated in 50 mM Tris buffered saline (pH 7.6) instead of 100% human plasma was also determined.

[5] = Aqueous stability in potassium phosphate buffers (50 mM), pH 3, 5, 7 and 9, HPLC; type: physicochemical; details: potassium phosphate buffer 50 mM
Description: The stabilities of PAP-101M (19), OAP-101M (20a), and VNP40101M were investigated in potassium phosphate buffers (50 mM) at pH 3, 5, 7 and 9 and at room temperature (22-25° C.). One sample was prepared at each pH for each drug; the initial drug concentration in each sample was 50 μg/mL. Each sample was analyzed by HPLC repetitively, at various time points, to determine the
concentration of the respective drug. The first-order kinetic half-lives of each drug were calculated.

B16-F10 murine melanoma = experiment: In vivo anti-tumor activity, B16-F10 murine melanoma implanted subcutaneously in C57BL/6 mice; details: for Tumor growth inhibition on Day 24: ip weekly for four weeks from Day 2, 80 mg/kg VNP40101M, equal molar doses of prodrugs
Description: as §1

[6] = system: leukemia cells implanted intracranially; details: Finch et al. 2001; cited from earlier work
[7] = room temperature, Krishna et al. 2001; cited from earlier work
[8] = Stability in 50 mM Tris buffered saline pH 7.6 (control without AP or plasma); type: physicochemical; details: 50 mM Tris buffered saline pH 7.6, 37° C.
Description: as §2, §3

[9] = female, Sprague-Dawley, rat, plasma
[10] = pH 9, room temperature (22-25° C.), read-out: Half-life, pH 9 (converted)

Compound: CN(Cc1ccccc1OP(=O)(O)O)C(=O)N(N(CCCl)S(C)(=O)=O)S(C)(=O)=O [OAP-101M (20a), Phosphoric acid mono-{2-{N-[1,2-bis(methylsulfonyl)-2-(2-chloroethyl)-hydrazinylcarbonyl]-N-methylaminomethyl}-phenyl} ester]
- solubility at 24 h [1]: 46 mg/mL (≈ 93.1 mM)
- Anti-tumor effect in HTB177 human lung carcinoma (FIGS. 14 and 15) [2]: holdout promise
- half-life at 50 μg/mL (alkaline phosphatase): 29 min
- half-life ([3]; female, Sprague-Dawley, rat, plasma, iv, 50 mg/kg): ~14 min
- AUC [3, 9]: 21900 ng·h/mL
- Cmax [3, 9]: 239 µg/mL
- clearance [3, 9]: 37.8 mL/min/kg
- Vd ([3]; female, Sprague-Dawley, rat, plasma, read-out: Vss): 0.146 L/kg
- half-life at 50 μg/mL [4]: 53.3 min
- half-life at 50 μg/mL [5, 10]: 171 days
- Survival of tumor-bearing mice (FIG. 12) (B16-F10 murine melanoma; B16-F10 tumor-bearing mice, versus other drugs): survived longer
- Tumor growth inhibition on Day 24 (B16-F10 murine melanoma): 91%

Compound: CN(Cc1ccccc1OP(=O)([O-])[O-])C(=O)N(N(CCCl)S(C)(=O)=O)S(C)(=O)=O.[Na+].[Na+] [OAP-Na-101M (22a), Phosphoric acid 2-{N-[1,2-bis(methylsulfonyl)-2-(2-chloroethyl)-hydrazinylcarbonyl]-N-methylaminomethyl}-phenyl ester disodium salt]
- solubility at 24 h [1]: > 1350 mg/mL
- solubility [1]: > 1350 mg/mL
- Anti-tumor effect in HTB177 human lung carcinoma (FIGS. 14 and 15) [2]: holdout promise
- Tumor growth inhibition on Day 24 (B16-F10 murine melanoma): 89.5%

Compound: CN(Cc1ccc(OP(=O)(O)O)cc1)C(=O)N(N(CCCl)S(C)(=O)=O)S(C)(=O)=O [PAP-101M (19), Phosphoric acid mono-{4-{N-[1,2-bis(methylsulfonyl)-2-(2-chloroethyl)-hydrazinylcarbonyl]-N-methylaminomethyl}-phenyl} ester]
- solubility at 24 h [1]: 293 mg/mL (≈ 593 mM)
- half-life at 50 μg/mL (alkaline phosphatase): 21.1 min
- Pharmacokinetic determination in rat plasma (in words) [3]: fast conversion or clearance
- half-life at 50 μg/mL [4]: 34.3 min

Compound: CN(Cc1ccc(OP(=O)([O-])[O-])cc1)C(=O)N(N(CCCl)S(C)(=O)=O)S(C)(=O)=O.[Na+].[Na+] [PAP-Na-101M (21), Phosphoric acid 4-{N-[1,2-bis(methylsulfonyl)-2-(2-chloroethyl)-hydrazinylcarbonyl]-N-methylaminomethyl}-phenyl ester disodium salt]
- solubility at 24 h [1]: > 980 mg/mL
- solubility [1]: > 980 mg/mL

Compound: CNC(=O)N(N(CCCl)S(C)(=O)=O)S(C)(=O)=O [VNP40101M, 1,2-Bis(methylsulfonyl)-1-(2-chloroethyl)-2-(methylaminocarbonyl) hydrazine]
- Log cell kill [6]: > 6.54 log cell kill
- Water-solubility [7]: 0.66 mg/mL
- half-life at 50 μg/mL [8]: 20.5 min
- half-life at 50 μg/mL [4]: 14.5 min
- half-life at 50 μg/mL ([5]; pH 5, room temperature (22-25° C.), read-out: Half-life, pH 5 (converted)): 118 days
- half-life at 50 μg/mL ([5]; pH 7, room temperature (22-25° C.), read-out: Half-life, pH 7 (converted)): 0.508 days
- half-life at 50 μg/mL [5, 10]: 0.00479 days
- Tumor growth inhibition on Day 24 (B16-F10 murine melanoma): 81%
